Consider 5 molecules from patent publication US4358444A, “2,4-Dioxacyclohexanone derivative” (Dr. L. Zambeletti S.p.A., priority 1981, dated 1982).

Data set [1] relates to rats. Put plainly: Theratogenesis studies in rats. Conditions: oral, all along the pregnancy. It counts as in vivo. From the text:
(§1) Theratogenesis studies have been carried out on rats and rabbits, which have been treated by oral route with MR 693 all along the duration of the pregnancy. […]
(§2) number of pregnant females […]
(§3) initial body weight/end body weight (of the mothers) […]
(§4) average number of lived foetuses total number of dead foetuses total number of re-absorptions average weight of lived foetuses

The format of data set [2] is in vivo. Conditions: for distribution / route of excretion/elimination: metabolite.
Data set [3] relates to dogs. As to the kind of experiment: Chronic toxicity in dogs, oral and rectal, 24 weeks. Type of data set: in vivo. From the text:
(§5) Chronic toxicity studies have been carried out on rats, administered by oral route with MR 693 for 24 consecutive weeks, and dogs, administered by oral and rectal route with the compound of the invention again for 24 weeks.
(§6) The parameters which have been taken into consideration are as follows:
(§7) biochemical examination of the blood glycosuria, proteinuria, haematuria, albuminuria
(§8) weight and hystological control of the principal organs;

In data set [4] the test system is rats. Put plainly: Subacute toxicity in rats, oral, four weeks. Type of data set: in vivo. Conditions: four consecutive weeks.
From the text: (§9) Subacute toxicity studies have been carried out on rats and dogs, by administering MR 693 by oral route for four consecutive weeks.
as §6
(§10) glycosuria, proteinuria, albuminuria and haematuria
(§11) weight of the principal organs

Data set [5] relates to dogs. Put plainly: Subacute toxicity in dogs, oral, four weeks. It counts as in vivo. Conditions: four consecutive weeks.
From the text: as §9, §6, §10, §11

The subject of data set [6] is carrageenin induced edema. As to the kind of experiment: Carrageenin induced edema test (antinflammatory activity). It counts as in vivo, rats. Conditions: for reduction of the edema / antiinflammatory action compared with acetylsalicylic acid (in words): oral, equimolecular dosages. From the text:
The antinflammatory properties of MR 693 have been investigated by means of the carrageenin induced edema test in rats, by administering the compound of the invention by oral route and using acetylsalycilic acid as the comparison substance, at equimolecular dosages.
A general note: In the carrageenan paw model, swelling and tenderness develop within hours.

A further data set relates to gastric mucosa. As to the kind of experiment: Gastrolesive activity after oral administration. It counts as in vivo, rats. Conditions: for gastric tolerability / gastrolesive effect (in words): oral. Here is the method:
MR 693 and acetylsalycilic acid as the comparison substance were administered by oral route to rats fastened from at least 18 hours.
After six hours from the beginning of the experiment, the rats were sacrificed and the stomachs were opened and examined in order to verify the presence of lesions on the gastric mucosa.

For data set [7], the system named is citric acid aerosol induced cough. As to the kind of experiment: Citric acid aerosol induced cough test (antitussive activity). Conditions: for antitussive activity compared with codeine (in words): 500 mg/kg oral vs codeine 25 mg/kg oral, general statement in b2.
A short description of another data set: Acute toxicity in mice. Conditions: in vivo, po; mouse, os; read-out: DL50 (the source's name). From the text:
(§12) Acute toxicity tests have been carried out in mice rats, by administering the compound of the invention by oral and intraperitoneal route.

The next data set has as its system esterase. As to the kind of experiment: In vitro metabolism (enzymatic hydrolysis). Type of data set: in vitro ADME. From the text:
Studies have been performed both in vitro and in vivo.

The test system of data set [8] is rats. Put plainly: Chronic toxicity in rats, oral, 24 weeks. Type of data set: in vivo.
From the text: as §5, §6, §7, §8

A further data set is described as follows: Acute toxicity in rats. Conditions: in vivo, rat, read-out: DL50 (the source's name).
From the text: as §12

In data set [9] the test system is yeast induced hypertermia. As to the kind of experiment: Yeast induced hypertermia test (antipyretic activity). Type of data set: in vivo, rat. From the text:
This activity has been investigated by means of the yeast induced hypertermia test in the rat, taking again acetylsalycilic acid, administered at equimolecular dosages, as the comparison substance.

For another data set, the system named is rabbits. Put plainly: Theratogenesis studies in rabbits. It counts as in vivo. Conditions: oral, all along the pregnancy.
From the text: as §1, §2, §3, §4

Data set [10] can be described thus: Toxicity, overall statement (acute, subacute and chronic). It counts as in vivo.
From the text: as §12, §9, §5

Where [11] appears, read: 400 mg/kg os (equimolecular dosage).
Where [12] appears, read: listed as 3-(2-methoxy-phenoxy)-3-methyl-benzo-2,4-dioxacyclohexanone.
[13] abbreviates: 250 mg/kg os (equimolecular dosage).

Where two headings read alike, the source gives them in different places. Some results are limits rather than exact numbers.

Turning to `COc1ccccc1OC1(C)OC(=O)c2ccccc2O1` (stereo not drawn) [MR 693, 3-(2-methoxy-phenoxy)-3-methyl-benzo-2,4-dioxacyclohexanone], the “theratogenesis: alterations” value with rats [1] and in the data set on rabbits was “no alteration” throughout. The “theratogenesis: number of litters alive” value in the data set on rats [1] and in the data set on rabbits was “no variation of the number of litters alive” throughout. Moreover, the “theratogenesis: somatic or skeletal malformations” value in the data set on rats [1] and with rabbits was “neither somatic not skeletal malformations have been observed” in each case. Besides, the pulmonary tropism entry in [2] (in vivo) was “relative better pulmonary tropism”. Also, the absorption result in [2] (in vivo, po) is recorded as “absorbed as such for the major part”. For the same molecule, the metabolites in vivo entry in [2] (in vivo, po) is “hydrolyzed to acetylsalycilic acid, salycilic acid and guaiacol”. The “alteration of the mucosae of the gastro-intestinal tract” value in the data set with dogs [3] and in the data set on rats [8] (24 weeks) was “did not show any alteration of the mucosae” each time. The “alterations or anatomo-pathological states (chronic toxicity)” value in the data set on dogs [3] and with rats [8] (24 consecutive weeks) was “no alterations or particularly significant anatomo-pathological states” in each case. For the same molecule, the “alterations or malformations (subacute toxicity)” value in the data set on rats [4] and in the data set on dogs [5] was “in no case alterations or malformations ascribable to the treatment” in each case. Moreover, in data set [6] (setting [11]), the “% Inhibition of the edema” value came out at 30%. Besides, the “reduction of the edema / antiinflammatory action compared with acetylsalicylic acid (in words)” value in [6] is “marked reduction of the edema”; in data set [6] (setting [12]) it was “practically is the same as that possessed by acetylsalicylic acid”. Besides, the “Average diameter of the lesions” value with gastric mucosa (100 mg/kg os, six hours) was 0 mm; with gastric mucosa (400 mg/kg os, six hours (equimolecular dosage)) it was 0 mm. Besides, the “gastric tolerability / gastrolesive effect (in words)” value was “perfectly tolerated at gastric level” with gastric mucosa and “complete absence of any gastrolesive effect” in the data set with gastric mucosa (setting [12]). Moreover, the “reduction over the controls of the number of cough-strokes (in words)” value in data set [7] (500 mg/kg oral) is given as “marked reduction”. Further, the “antitussive activity compared with codeine (in words)” value in [7] is given as “better than that displayed, under the same conditions, by an oral dosage of 25 mg/kg of codeine”; in data set [7] (setting [12]), “higher than that of codeine”. For the same molecule, the “% Inhibition of cough-strokes” value in [7] (500 mg/kg os) is reported as 84.3%. Further, in data set [7] (Cavia porcellus, ip, read-out: % Inhibition of cough-strokes), the inhibition at 100 mg/kg stood at 100%. Moreover, the LD50 was greater than 3000 mg/kg in “Acute toxicity in mice”; 1750 mg/kg in the data set “Acute toxicity in rats” (ip, i.p.); greater than 3000 mg/kg in the data set “Acute toxicity in rats” (po, os). Besides, in the data set on esterase, the “enzymatic hydrolysis (metabolites)” value was “enzymatically hydrolyzed to acetylsalycilic acid and guaiacol”. In addition, in the data set on esterase, the “organs displaying the highest esterase activity” value was “the lungs and the kidneys”. For the same molecule, the “% Inhibition (yeast induced hypertermia)” value in [9] (setting [11]) came to 86%. The “antipyretic activity compared with acetylsalicylic acid (in words)” value in data set [9] (oral, equimolecular dosages, listed as 3-(2-methoxy-phenoxy)-3-methyl-benzo-2,4-dioxacyclohexanone) is “only slightly lower than that displayed, again, by acetylsalicylic acid”. In addition, the “toxicity (in words)” value in [10] (setting [12]) was “almost negligible toxicity (both acute, subacute and chronic)”; in data set [10] (listed as mr 693) it was “very little toxic compound”.

For `COc1ccc2c3c1O[C@H]1[C@@H](O)C=C[C@H]4[C@@H](C2)N(C)CC[C@@]341` [Codeine, codeine, reference compound], the “% Inhibition of cough-strokes” value in data set [7] (12.5 mg/kg i.p.) amounted to 93.7%; in data set [7] (25 mg/kg os), 76.7%. The inhibition at 12.5 mg/kg in data set [7] (Cavia porcellus, ip, read-out: % Inhibition of cough-strokes, 12.5 mg/kg i.p.) is 93%.

Turning to `CC(=O)Oc1ccccc1C(=O)O` [Acetylsalycilic acid, acetylsalicylic acid, reference compound], the “concentration observed in the lungs compared with plasma and liver” value in data set [2] (in vivo) is “higher than those observed in the plasma and the liver”. For the same molecule, in data set [2] (after administration of MR 693), the distribution entry is given as “enter the systemic circulation”. Moreover, the “% Inhibition of the edema” value in [6] (setting [13]) is 33%. The “Average diameter of the lesions” value with gastric mucosa (250 mg/kg os, six hours (equimolecular dosage)) was 3.7 ± 0.8 mm. In addition, the “% Inhibition (yeast induced hypertermia)” value in data set [9] (setting [13]) is reported as 103%.

As to `COc1ccccc1O` [guaiacol], in data set [2] (assumed from lung concentrations and pulmonary tropism of guaiacol), the pulmonary tropism entry is on record as “marked pulmonary tropism”. The absorption result in [2] (in vivo, after oral administration of MR 693) is “mainly absorbed by pre-systemic route”. Further, in data set [2] (after administration of MR 693), the distribution result was “enters the lungs through the lymphatic vessels” and the route of excretion/elimination entry was “eliminated by respiratory route”.

`O=C(O)c1ccccc1O` [salycilic acid]: in [2] (after administration of MR 693), the “concentration observed in the lungs compared with plasma and liver” value was “higher than those observed in the plasma and the liver”; the distribution entry is “enter the systemic circulation”; the route of excretion/elimination entry is “excreted by urinary route”.
